Laboratory results reported in PubChem BioAssay AID248 (DTP/NCI, 2004).
“And” between values parts separate entries of the source, which are not always exact repeats. Equal values may be shown once. Inconclusive results and toxic doses are left out. Cut-off read from the data, not from the text of the source: active = T/C of 150% or more; inactive = T/C below 125%.

System: L1210 leukemia ip in BDF1 mice, survival T/C
Assay: NCI In Vivo Anticancer Drug Screen. Data for tumor model L1210 Leukemia (intraperitoneal) in B6D2F1 (BDF1) mice
Conditions: higher = longer survival
Procedure, shortened: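 Tumor cells were implanted, animals were treated, and survival was followed. The result divides the treated measurement by the vehicle-control measurement.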

[1] = endpoint: mean survival time, dose: 100.0 mg/kg/injection, schedule: Q04DX003 (ip), vehicle: Klucel (hydroxypropylcellulose) (HPC)
[2] = endpoint: mean survival time, dose: 200.0 mg/kg/injection, schedule: Q04DX003 (ip), vehicle: Klucel (hydroxypropylcellulose) (HPC)
[3] = endpoint: mean survival time, dose: 400.0 mg/kg/injection, schedule: Q04DX003 (ip), vehicle: Klucel (hydroxypropylcellulose) (HPC)
[4] = endpoint: mean survival time, dose: 100.0 mg/kg/injection, schedule: Q04DX002 (ip), vehicle: saline with Tween-80
[5] = endpoint: mean survival time, dose: 200.0 mg/kg/injection, schedule: Q04DX002 (ip), vehicle: saline with Tween-80

Measured: T/C

CO[C@H]1/C=C/O[C@@]2(C)Oc3c(C)c(O)c4c(O)c(c(/C=N/N5C(C)CN(Cc6ccccc6)CC5C)c(O)c4c3C2=O)NC(=O)/C(C)=C\C=C\[C@H](C)[C@H](O)[C@@H](C)[C@@H](O)[C@@H](C)[C@H](OC(C)=O)[C@@H]1C (some centres not stated)
inactive: endpoint: mean survival time, dose: 12.5 mg/kg/injection, schedule: Q02DX Z (oral), vehicle: Klucel (hydroxypropylcellulose) (HPC) 100 % of control | endpoint: mean survival time, dose: 25.0 mg/kg/injection, schedule: Q02DX Z (oral), vehicle: Klucel (hydroxypropylcellulose) (HPC) 95 % of control and 98 % of control | endpoint: mean survival time, dose: 50.0 mg/kg/injection, schedule: Q01DX009 (ip), vehicle: Klucel (hydroxypropylcellulose) (HPC) 97 % of control | endpoint: mean survival time, dose: 50.0 mg/kg/injection, schedule: Q02DX Z (oral), vehicle: Klucel (hydroxypropylcellulose) (HPC) 93 % of control and 96 % of control | endpoint: mean survival time, dose: 100.0 mg/kg/injection, schedule: Q01DX009 (ip), vehicle: Klucel (hydroxypropylcellulose) (HPC) 101 % of control | endpoint: mean survival time, dose: 100.0 mg/kg/injection, schedule: Q02DX Z (oral), vehicle: Klucel (hydroxypropylcellulose) (HPC) 100 % of control and 106 % of control | [1] 97 % of control | endpoint: mean survival time, dose: 200.0 mg/kg/injection, schedule: Q01DX009 (ip), vehicle: Klucel (hydroxypropylcellulose) (HPC) 100 % of control | endpoint: mean survival time, dose: 200.0 mg/kg/injection, schedule: Q02DX Z (oral), vehicle: Klucel (hydroxypropylcellulose) (HPC) 96 % of control and 98 % of control | [2] 95 % of control | endpoint: mean survival time, dose: 400.0 mg/kg/injection, schedule: Q02DX Z (oral), vehicle: Klucel (hydroxypropylcellulose) (HPC) 107 % of control and 91 % of control | [3] 103 % of control | endpoint: mean survival time, dose: 800.0 mg/kg/injection, schedule: Q02DX Z (oral), vehicle: Klucel (hydroxypropylcellulose) (HPC) 101 % of control and 104 % of control | endpoint: mean survival time, dose: 1600.0 mg/kg/injection, schedule: Q02DX Z (oral), vehicle: Klucel (hydroxypropylcellulose) (HPC) 95 % of control and 89 % of control | endpoint: median survival time, dose: 6.25 mg/kg/injection, schedule: Q01DX005 (ip), vehicle: other 106 % of control | endpoint: median survival time, dose: 12.5 mg/kg/injection, schedule: Q01DX005 (ip), vehicle: Klucel (hydroxypropylcellulose) (HPC) 110 % of control | endpoint: median survival time, dose: 12.5 mg/kg/injection, schedule: Q01DX005 (ip), vehicle: other 107 % of control | endpoint: median survival time, dose: 12.5 mg/kg/injection, schedule: Q01DX005 (oral), vehicle: other 117 % of control | endpoint: median survival time, dose: 25.0 mg/kg/injection, schedule: Q01DX005 (ip), vehicle: Klucel (hydroxypropylcellulose) (HPC) 101 % of control | endpoint: median survival time, dose: 25.0 mg/kg/injection, schedule: Q01DX005 (ip), vehicle: other 111 % of control | endpoint: median survival time, dose: 25.0 mg/kg/injection, schedule: Q01DX005 (oral), vehicle: Klucel (hydroxypropylcellulose) (HPC) 117 % of control | endpoint: median survival time, dose: 25.0 mg/kg/injection, schedule: Q01DX005 (oral), vehicle: other 114 % of control and 119 % of control | endpoint: median survival time, dose: 25.0 mg/kg/injection, schedule: Q02DX005 (oral), vehicle: other 104 % of control | endpoint: median survival time, dose: 50.0 mg/kg/injection, schedule: Q01DX005 (ip), vehicle: Klucel (hydroxypropylcellulose) (HPC) 97 % of control | endpoint: median survival time, dose: 50.0 mg/kg/injection, schedule: Q01DX005 (ip), vehicle: other 117 % of control | endpoint: median survival time, dose: 50.0 mg/kg/injection, schedule: Q01DX005 (oral), vehicle: Klucel (hydroxypropylcellulose) (HPC) 114 % of control | endpoint: median survival time, dose: 50.0 mg/kg/injection, schedule: Q01DX005 (oral), vehicle: other 93 % of control and 111 % of control | endpoint: median survival time, dose: 50.0 mg/kg/injection, schedule: Q02DX005 (oral), vehicle: other 104 % of control | endpoint: median survival time, dose: 100.0 mg/kg/injection, schedule: Q01DX005 (ip), vehicle: Klucel (hydroxypropylcellulose) (HPC) 106 % of control | endpoint: median survival time, dose: 100.0 mg/kg/injection, schedule: Q01DX005 (ip), vehicle: other 103 % of control | endpoint: median survival time, dose: 100.0 mg/kg/injection, schedule: Q01DX005 (oral), vehicle: Klucel (hydroxypropylcellulose) (HPC) 114 % of control | endpoint: median survival time, dose: 100.0 mg/kg/injection, schedule: Q01DX005 (oral), vehicle: other 93 % of control and 107 % of control | endpoint: median survival time, dose: 100.0 mg/kg/injection, schedule: Q02DX005 (oral), vehicle: other 104 % of control | endpoint: median survival time, dose: 200.0 mg/kg/injection, schedule: Q01DX005 (ip), vehicle: Klucel (hydroxypropylcellulose) (HPC) 92 % of control | endpoint: median survival time, dose: 200.0 mg/kg/injection, schedule: Q01DX005 (oral), vehicle: Klucel (hydroxypropylcellulose) (HPC) 94 % of control and 117 % of control | endpoint: median survival time, dose: 200.0 mg/kg/injection, schedule: Q01DX005 (oral), vehicle: other 98 % of control and 111 % of control | endpoint: median survival time, dose: 200.0 mg/kg/injection, schedule: Q02DX005 (oral), vehicle: Klucel (hydroxypropylcellulose) (HPC) 100 % of control | endpoint: median survival time, dose: 200.0 mg/kg/injection, schedule: Q02DX005 (oral), vehicle: other 119 % of control | endpoint: median survival time, dose: 400.0 mg/kg/injection, schedule: Q01DX005 (ip), vehicle: Klucel (hydroxypropylcellulose) (HPC) 102 % of control | endpoint: median survival time, dose: 400.0 mg/kg/injection, schedule: Q01DX005 (oral), vehicle: Klucel (hydroxypropylcellulose) (HPC) 104 % of control and 114 % of control | endpoint: median survival time, dose: 400.0 mg/kg/injection, schedule: Q02DX005 (oral), vehicle: Klucel (hydroxypropylcellulose) (HPC) 101 % of control | endpoint: median survival time, dose: 800.0 mg/kg/injection, schedule: Q01DX005 (ip), vehicle: Klucel (hydroxypropylcellulose) (HPC) 104 % of control | endpoint: median survival time, dose: 800.0 mg/kg/injection, schedule: Q01DX005 (oral), vehicle: Klucel (hydroxypropylcellulose) (HPC) 101 % of control | endpoint: median survival time, dose: 800.0 mg/kg/injection, schedule: Q02DX005 (oral), vehicle: Klucel (hydroxypropylcellulose) (HPC) 104 % of control | endpoint: median survival time, dose: 1600.0 mg/kg/injection, schedule: Q01DX005 (oral), vehicle: Klucel (hydroxypropylcellulose) (HPC) 104 % of control and 114 % of control | endpoint: median survival time, dose: 1600.0 mg/kg/injection, schedule: Q02DX005 (oral), vehicle: Klucel (hydroxypropylcellulose) (HPC) 119 % of control

C=CCN(C)c1ccc(C(=O)OC)cc1
inactive: endpoint: mean survival time, dose: 100.0 mg/kg/injection, schedule: Q01DX001 (ip), vehicle: carboxymethylcellulose (CMC) 102 % of control | endpoint: mean survival time, dose: 200.0 mg/kg/injection, schedule: Q01DX001 (ip), vehicle: carboxymethylcellulose (CMC) 94 % of control | endpoint: mean survival time, dose: 400.0 mg/kg/injection, schedule: Q01DX001 (ip), vehicle: carboxymethylcellulose (CMC) 100 % of control

CN1CC(=O)N2c3ccccc3CC2C1=O (configuration not stated)
inactive: [4] 102 % of control | [5] 113 % of control | endpoint: mean survival time, dose: 400.0 mg/kg/injection, schedule: Q04DX002 (ip), vehicle: saline with Tween-80 102 % of control

CCCCCC(C)(O)CCC (configuration not stated)
inactive: endpoint: mean survival time, dose: 50.0 mg/kg/injection, schedule: Q01DX001 (ip), vehicle: saline 93 % of control | endpoint: mean survival time, dose: 100.0 mg/kg/injection, schedule: Q01DX001 (ip), vehicle: saline 93 % of control | endpoint: mean survival time, dose: 200.0 mg/kg/injection, schedule: Q01DX001 (ip), vehicle: saline 93 % of control

CSc1nc(SC)c(Cl)c(C(Cl)Cl)n1
inactive: [1] 98 % of control | [2] 94 % of control | [3] 102 % of control

CCCCCCCCCCCCCCC[n+]1cccc(C#N)c1
inactive: endpoint: mean survival time, dose: 5.0 mg/kg/injection, schedule: Q01DX009 (ip), vehicle: saline 104 % of control | endpoint: mean survival time, dose: 10.0 mg/kg/injection, schedule: Q01DX001 (ip), vehicle: saline 87 % of control | endpoint: mean survival time, dose: 10.0 mg/kg/injection, schedule: Q01DX009 (ip), vehicle: saline 96 % of control | endpoint: mean survival time, dose: 10.0 mg/kg/injection, schedule: Q04DX003 (ip), vehicle: saline 90 % of control | endpoint: mean survival time, dose: 20.0 mg/kg/injection, schedule: Q01DX001 (ip), vehicle: saline 95 % of control and 86 % of control | endpoint: mean survival time, dose: 20.0 mg/kg/injection, schedule: Q01DX009 (ip), vehicle: saline 107 % of control | endpoint: mean survival time, dose: 20.0 mg/kg/injection, schedule: Q04DX003 (ip), vehicle: saline 95 % of control | endpoint: mean survival time, dose: 40.0 mg/kg/injection, schedule: Q01DX001 (ip), vehicle: saline 101 % of control and 90 % of control | endpoint: mean survival time, dose: 40.0 mg/kg/injection, schedule: Q04DX003 (ip), vehicle: saline 94 % of control

NCCOCCOCCN
inactive: endpoint: mean survival time, dose: 50.0 mg/kg/injection, schedule: Q01DX009 (ip), vehicle: saline 108 % of control | endpoint: mean survival time, dose: 100.0 mg/kg/injection, schedule: Q01DX009 (ip), vehicle: saline 87 % of control

O=C(c1ccccn1)c1nnn2ccccc12
inactive: [4] 91 % of control | [5] 87 % of control

O=C(c1ccccc1)C1C(c2ccccc2)OP(c2ccccc2)(c2ccccc2)(c2ccccc2)C1c1ccccc1 (configuration not stated)
inactive: endpoint: mean survival time, dose: 6.25 mg/kg/injection, schedule: Q04DX003 (ip), vehicle: saline with Tween-80 102 % of control | endpoint: mean survival time, dose: 12.5 mg/kg/injection, schedule: Q01DX009 (ip), vehicle: saline with Tween-80 97 % of control | endpoint: mean survival time, dose: 25.0 mg/kg/injection, schedule: Q04DX003 (ip), vehicle: saline with Tween-80 94 % of control

O=C(O)c1ccc(F)c([N+](=O)[O-])c1
inactive: endpoint: mean survival time, dose: 100.0 mg/kg/injection, schedule: Q04DX002 (ip), vehicle: saline 102 % of control | endpoint: mean survival time, dose: 200.0 mg/kg/injection, schedule: Q04DX002 (ip), vehicle: saline 113 % of control | endpoint: mean survival time, dose: 400.0 mg/kg/injection, schedule: Q04DX002 (ip), vehicle: saline 107 % of control
